Data reported in article PMC7689250, “Synthetic Peptide Libraries Designed From a Minimal Alpha-Helical Domain of AS-48-Bacteriocin Homologs Exhibit Potent Antibacterial Activity” (Frontiers in Microbiology, 2020).
Where two headings read alike, the source gives them in different places. Residues, ends and D or L forms follow the SMILES beside them.

Legend:
[1] = system: human keratinocyte cell line (HaCaT); test: HaCaT cytotoxicity, ethidium homodimer assay; format: cell-based; conditions: 16 h, 37°C, DMEM + 10% FBS, normalised to saponin, triplicate
Experimental: To assess cytotoxicity of optimized peptides in mammalian cells, an immortalized human keratinocyte cell line (HaCaT) was used. Cells were grown to 80% confluency in 24-well culture dishes and washed with PBS (Thermo Fisher). […] After incubation, the cells were washed with sterile PBS, followed by a covered incubation with 4 μM ethidium homodimer (Molecular Probes) for 30 min at room temperature. Fluorescence was measured using the Synergy H1 Microplate Reader set to 528 nm excitation, 617 nm emission, and a cutoff value of 590 nm. Saponin (0.1% wt/vol, Sigma) was added to each well followed by a covered incubation for 20 min at room temperature, followed by another measurement on the Synergy H1 Microplate Reader using the same settings to normalize readings to the number of cells per well and determine the percent cytotoxicity.

E. coli (BL21) = format: cell-based, Escherichia coli
How it was run: (§1)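 MIC in Mueller-Hinton broth with 1 × 10^6 CFU/mL bacteria, overnight cultures grown first in LB (E. coli, P. aeruginosa, S. aureus) or Todd-Hewitt (S. pyogenes); growth read as OD 600. Library members screened at half the parent peptide MIC; MBC as lowest concentration giving no colonies after plating MIC wells, 37°C overnight.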

P. aeruginosa (PAO1) = format: cell-based, Pseudomonas aeruginosa; conditions: for MBC: PAO1
How it was run: as §1

S. pyogenes (M1) = format: cell-based, Streptococcus pyogenes; conditions: for MBC: M1; for MIC: M1, 16 h
How it was run: as §1

S. aureus (USA300) = format: cell-based, Staphylococcus aureus; conditions: for MBC: USA300; for MIC: USA300, 16 h
How it was run: as §1

sheep erythrocytes = format: cell-based; conditions: red cells of sheep, 1 h
How it was run: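 Washed defibrinated sheep blood, diluted 1:25 in PBS, incubated 1 h at 37 °C with peptide at the MIC-assay concentrations (sample:blood 1:10). Haemoglobin release read as supernatant absorbance at 450 nm; percent haemolysis normalised to PBS and 10% Triton controls.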

[2] = system: GFP-expressing E. coli strain BL21; test: Live imaging of GFP leakage; format: cell-based, Escherichia coli; conditions: 16 μM peptide, 8 h, 37°C, images every 10 min
Experimental: To observe bacterial cell death in the presence of peptide in real time, fluorescence microscopy was employed using GFP-expressing E. coli strain BL21. MIC assays were conducted against BL21-GFP to determine the peptide concentration used for microscopy experiments. The peptide was suspended in PBS and added to diluted bacterial cells. GFP-expressing E. coli in the presence of peptide were imaged on the Eclipse Ti-E inverted microscope (Nikon) using GFP and DIC channels for 8 h at 37°C, with images taken every 10 min ([Fields et al., 2020]). Syn-xiamencin-2, a peptide with no detectable antimicrobial activity below 128 μM was also evaluated as a negative peptide candidate control.

E. coli strain BL21 = test: Propidium iodide uptake by FACS; format: cell-based, Escherichia coli; conditions: 2, 4, 8, 16 or 32 μM peptide in saline, 1 h, ambient temperature, 1 × 10^4 events
Experimental: For determination of bacterial cell death via membrane disruption, bacterial cells were subjected to propidium iodide (PI) uptake and quantified using fluorescence-activated cell sorting (FACS). E. coli strain BL21 were first diluted to a OD 600 of 1.0. Cells were washed three times in 0.85% NaCl (saline) solution and resuspended in either 1.5 mL of either saline, 70% isopropyl alcohol, or peptide diluted to either 2, 4, 8, 16 or 32 μM in saline for 1 h at ambient temperature. Following incubation, cells were pelleted and resuspended in 1 mL of saline with 1.5 μL/mL propidium iodide and incubated in the dark for 15 min. The samples were washed again with saline three times and run through a Beckman Coulter FC500 flow cytometer. The FL3 detector, using the propidium iodine PE-Alexa Fluor 610 emission filter, was used to sort the cells. 1 × 10^4 events were collected for each sample run.

[3] = E. coli BL21, running text b43, unit printed nm

Structure (SMILES) | concentration at which peptide is cytotoxic [1] | MBC (E. coli (BL21); BL21) | MIC (E. coli (BL21); BL21, 16 h) | MBC (P. aeruginosa (PAO1)) | MIC (P. aeruginosa (PAO1); PAO1, 16 h) | MBC (S. pyogenes (M1)) | MIC (S. pyogenes (M1)) | MBC (S. aureus (USA300)) | MIC (S. aureus (USA300)) | Percent Hemolysis (sheep erythrocytes) | MIC (E. coli (BL21); BL21) | MBC (E. coli (BL21); [3]) | MIC (E. coli (BL21); [3]) | GFP leakage / change in fluorescence [2] | PI positive cells (E. coli strain BL21) | MIC (P. aeruginosa (PAO1); P. aeruginosa PAO1, broth microdilution, Mueller-Hinton broth, 1 × 10^6 CFU/mL, 16 h, OD600, triplicate) | MIC (E. coli (BL21); E. coli BL21)
CC[C@H](C)[C@H](NC(=O)[C@H](CCCNC(=N)N)NC(=O)[C@H](CCC(N)=O)NC(=O)[C@@H](NC(=O)[C@H](Cc1c[nH]c2ccccc12)NC(=O)[C@H](C)N)[C@@H](C)O)C(=O)N[C@@H](CCCCN)C(=O)N[C@@H](C)C(=O)N[C@@H](Cc1ccc(O)cc1)C(=O)N[C@@H](CC(C)C)C(=O)N[C@@H](CCCNC(=N)N)C(=O)N[C@@H](CCCNC(=N)N)C(=O)N[C@@H](CCC(=O)O)C(=O)N[C@H](C(=O)N[C@@H](CCCNC(=N)N)C(=O)N[C@@H](CCCCN)C(=O)N[C@@H](CCCNC(=N)N)C(=O)NCC(=O)N[C@@H](CCCNC(=N)N)C(=O)N[C@@H](CCCCN)C(=O)N[C@@H](C)C(=O)N[C@H](C(=O)N[C@H](C(=O)N[C@@H](C)C(=O)N[C@@H](Cc1c[nH]c2ccccc12)C(=O)O)[C@@H](C)CC)C(C)C)[C@@H](C)CC [Syn-sordellicin-19] (H-AWTQRIKAYLRREIRKRGRKAVIAW-OH; N-terminus and C-terminus assumed) | ≥ 64 µM | 2 µM | 2 µM | 16 µM | 8 µM | 2 µM | 2 µM | >128 µM | >128 µM | – | – | – | – | – | – | – | –
CC[C@H](C)[C@H](NC(=O)[C@H](CCCNC(=N)N)NC(=O)CNC(=O)[C@@H](NC(=O)[C@H](CCCCN)NC(=O)[C@H](CCCNC(=N)N)NC(=O)[C@@H](NC(=O)[C@H](Cc1ccc(O)cc1)NC(=O)[C@H](CCCNC(=N)N)NC(=O)[C@H](CCCNC(=N)N)NC(=O)[C@H](CC(C)C)NC(=O)[C@H](CCC(=O)O)NC(=O)[C@H](CCCCN)NC(=O)[C@H](C)NC(=O)[C@@H](NC(=O)[C@H](CCCNC(=N)N)NC(=O)[C@H](CC(N)=O)NC(=O)[C@@H](NC(=O)CNC(=O)[C@H](C)N)[C@@H](C)O)[C@@H](C)CC)[C@@H](C)CC)C(C)C)C(=O)N[C@@H](C)C(=O)N[C@@H](CCCNC(=N)N)C(=O)N[C@@H](CCCCN)C(=O)N[C@@H](CCCCN)C(=O)N[C@@H](Cc1c[nH]c2ccccc12)C(=O)O [Syn-sordellicin-88] (H-AGTNRIAKELRRYIRKVGRIARKKW-OH; N-terminus and C-terminus assumed) | ≥ 64 µM | 1 µM | 1 µM | 16 µM | 16 µM | 1 µM | 1 µM | 64 µM | 64 µM | 11.7% | – | – | – | – | – | – | –
CC[C@H](C)[C@H](NC(=O)[C@H](CCCCN)NC(=O)[C@H](CCCCN)NC(=O)CNC(=O)[C@H](CCC(=O)O)NC(=O)[C@H](CCC(N)=O)NC(=O)[C@@H](NC(=O)[C@@H](NC(=O)[C@H](CCCCN)NC(=O)[C@H](CCCCN)NC(=O)[C@H](CC(C)C)NC(=O)[C@H](CCCNC(=N)N)NC(=O)[C@H](CCC(N)=O)NC(=O)[C@H](Cc1ccccc1)NC(=O)[C@@H](NC(=O)[C@H](CCCCN)NC(=O)[C@H](CCC(=O)O)NC(=O)[C@@H](NC(=O)[C@H](Cc1c[nH]c2ccccc12)NC(=O)[C@H](C)N)[C@@H](C)O)[C@@H](C)CC)[C@@H](C)O)[C@@H](C)CC)C(=O)N[C@@H](C)C(=O)N[C@@H](CCCCN)C(=O)N[C@@H](CCCNC(=N)N)C(=O)N[C@@H](C)C(=O)N[C@@H](Cc1c[nH]c2ccccc12)C(=O)O [Syn-larvacin-39] (H-AWTEKIFQRLKKTIQEGKKIAKRAW-OH; N-terminus and C-terminus assumed) | – | – | <0.0156 µM | 64 µM | 16 µM | 4 µM | 2 µM | 4 µM | 1 µM | 14.4% | 0.0156 µM | below 15.6 nM | below 15.6 nM | significant decrease in fluorescence | – | – | –
CC(C)O [Isopropyl alcohol, isopropyl alcohol, reference compound] | – | – | – | – | – | – | – | – | – | – | – | – | – | – | large peak within the PI florescence range | – | –
CC[C@H](C)[C@H](NC(=O)[C@H](CCCNC(=N)N)NC(=O)[C@H](CCC(N)=O)NC(=O)[C@H](Cc1c[nH]c2ccccc12)NC(=O)CNC(=O)[C@H](C)N)C(=O)N[C@@H](CCCCN)C(=O)N[C@@H](C)C(=O)N[C@@H](Cc1ccc(O)cc1)C(=O)N[C@@H](CC(C)C)C(=O)N[C@@H](CCCNC(=N)N)C(=O)N[C@@H](CCCNC(=N)N)C(=O)N[C@@H](CCC(=O)O)C(=O)N[C@H](C(=O)N[C@@H](CCCNC(=N)N)C(=O)N[C@@H](CCCCN)C(=O)N[C@@H](CCCNC(=N)N)C(=O)NCC(=O)N[C@@H](CCCNC(=N)N)C(=O)N[C@@H](CCCCN)C(=O)N[C@@H](C)C(=O)N[C@H](C(=O)N[C@H](C(=O)N[C@@H](C)C(=O)N[C@@H](Cc1c[nH]c2ccccc12)C(=O)O)[C@@H](C)CC)C(C)C)[C@@H](C)CC [Syn-sordellicin-43] (H-AGWQRIKAYLRREIRKRGRKAVIAW-OH; N-terminus and C-terminus assumed) | – | 1 µM | 1 µM | 4 µM | – | 4 µM | 2 µM | 32 µM | 32 µM | 11.2% | – | – | – | significant decrease in fluorescence | – | 2 µM | –
CC[C@H](C)[C@H](NC(=O)[C@H](CCCNC(=N)N)NC(=O)CNC(=O)[C@@H](NC(=O)[C@H](CCCCN)NC(=O)[C@H](CCCNC(=N)N)NC(=O)[C@@H](NC(=O)[C@H](Cc1ccc(O)cc1)NC(=O)[C@H](CCCNC(=N)N)NC(=O)[C@H](CCCNC(=N)N)NC(=O)[C@H](CC(C)C)NC(=O)[C@H](CCC(=O)O)NC(=O)[C@H](CCCCN)NC(=O)[C@H](C)NC(=O)[C@@H](NC(=O)[C@H](CCCNC(=N)N)NC(=O)[C@H](CC(N)=O)NC(=O)[C@@H](NC(=O)CNC(=O)[C@H](C)N)[C@@H](C)O)[C@@H](C)CC)[C@@H](C)CC)C(C)C)C(=O)N[C@@H](C)C(=O)N[C@@H](CCCNC(=N)N)C(=O)N[C@@H](CCCCN)C(=O)N[C@@H](Cc1c[nH]c2ccccc12)C(=O)N[C@@H](Cc1c[nH]c2ccccc12)C(=O)O [Syn-sordellicin-64] (H-AGTNRIAKELRRYIRKVGRIARKWW-OH; N-terminus and C-terminus assumed) | ≥ 32 µM | 0.5 µM | – | 8 µM | 8 µM | 1 µM | 1 µM | 8 µM | 8 µM | 18.8% | – | – | – | – | – | – | 0.25 µM
